{
  "source": "paper PMC8987110",
  "about": "“The Nutraceutical Alliin From Garlic Is a Novel Substrate of the Essential Amino Acid Transporter LAT1 (SLC7A5)” (Frontiers in Pharmacology, 2022)",
  "key": {"hLAT1 (LAT1, SLC7A5) [1]": {"target": "T1, hLAT1 (LAT1, SLC7A5) (Homo sapiens, UniProt Q01650)", "T1 construct": "recombinant hLAT1 WT alone (no CD98/SLC3A2), expressed in E. coli Rosetta(DE3)pLysS, purified on HisTrap (His tag implied), reconstituted in proteoliposomes with cholesterol", "T1 sequence (Q01650 whole entry)": "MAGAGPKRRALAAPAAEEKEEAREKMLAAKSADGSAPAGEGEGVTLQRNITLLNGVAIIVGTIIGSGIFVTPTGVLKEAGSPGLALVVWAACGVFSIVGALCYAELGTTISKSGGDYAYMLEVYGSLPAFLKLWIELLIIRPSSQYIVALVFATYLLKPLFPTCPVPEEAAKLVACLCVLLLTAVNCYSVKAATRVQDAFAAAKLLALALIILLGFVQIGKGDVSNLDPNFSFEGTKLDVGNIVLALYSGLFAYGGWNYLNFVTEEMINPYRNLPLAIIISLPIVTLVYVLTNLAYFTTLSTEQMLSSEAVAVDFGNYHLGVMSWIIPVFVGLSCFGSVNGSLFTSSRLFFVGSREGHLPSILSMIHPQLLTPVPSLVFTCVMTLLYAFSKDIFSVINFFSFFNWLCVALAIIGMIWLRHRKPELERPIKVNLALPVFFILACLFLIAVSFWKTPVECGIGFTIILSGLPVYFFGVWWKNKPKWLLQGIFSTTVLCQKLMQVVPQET", "assay": "inhibition of [3H]-histidine uptake in proteoliposomes, Lineweaver-Burk", "format": "biochemical"}, "hLAT1 (LAT1, SLC7A5) [2]": {"target": "T1, hLAT1 (LAT1, SLC7A5)", "assay": "inhibition of [3H]-histidine uptake in proteoliposomes, dose-response", "format": "biochemical"}},
  "data": [
    {"smiles": "C=CC[S@+]([O-])C[C@H](N)C(=O)O", "note": "[alliin]", "values": [
      {"measurement": "Ki", "setting": "hLAT1 (LAT1, SLC7A5) [1]", "result": "50 ± 19", "unit": "µM"},
      {"measurement": "IC50", "setting": "hLAT1 (LAT1, SLC7A5) [2]", "result": "79 ± 9", "unit": "µM"}
    ]}
  ]
}
